Several values for one entry are separate records, joined by “and”; a condition that tells them apart may be missing. Equal entries are not always repeated. Numbers after ± are expanded uncertainties.

The nature of this data set: activity coefficient (dimensionless); of the first substance listed, at infinite dilution; xn = mol fraction of the nth substance listed. Conditions: 101 kPa, Liquid, x1 = 0.

`CCCCO` [butan-1-ol] + CCCCCC[n+]1ccn(C)c1.O=S(=O)([N-]S(=O)(=O)C(F)(F)F)C(F)(F)F: the activity coefficient is, setting by setting: (323.1 K) 1.99 and 1.98 and 2.06; (333.5 K) 1.83 [middle of 4 runs]; (344 K) 1.61 [middle of 5 runs]; (354.5 K) 1.46 [middle of 5 runs]; (364.9 K) 1.34 [middle of 4 runs]; (375.4 K) 1.23 and 1.28. Besides, under “386.1 K”, the activity coefficient was determined as 1.14 ± 0.12.
Regarding `CCCCCCO` [hexan-1-ol] + CCCCCC[n+]1ccn(C)c1.O=S(=O)([N-]S(=O)(=O)C(F)(F)F)C(F)(F)F, the activity coefficient was 2.57 ± 0.47 (333.4 K); 2.32 and 2.25 and 2.37 (343.9 K); 2.14 [middle of 7 runs] (354.4 K); 1.95 [middle of 5 runs] (364.8 K); 1.8 [middle of 5 runs] (375.2 K); 1.67 and 1.69 and 1.7 (386 K). Under “396 K”, the activity coefficient worked out at 1.56 ± 0.25.
With `CO` [methanol] + CCCCCC[n+]1ccn(C)c1.O=S(=O)([N-]S(=O)(=O)C(F)(F)F)C(F)(F)F, the activity coefficient runs as follows: (301.8 K) 1.46 [middle of 4 runs]; (312.4 K) 1.29 [middle of 5 runs]; (322.9 K) 1.15 and 1.25 and 1.22; (333.2 K) 1.1 [middle of 4 runs]; (344 K) 1 [middle of 4 runs]; (354.3 K) 0.87 and 0.93 and 0.9.

For the origin of these results see the NIST ThermoML archive (doi:10.1016/j.jct.2006.07.006).
